The target of this experiment is TRKA (Homo sapiens (Human), UniProt P04629). Put plainly: Isolated TRK enzyme assay (HTRF KinEASE-TK), TRKA. The class given is biochemical. Conditions: read-out: Trka enzyme (IC50).

In patent US8846698B2, “Pyrrolo[2,3-d]pyrimidine tropomysin-related kinase inhibitors” (Pfizer Limited, priority 2011, dated 2014) one finds IC50 data, which are given here for 32 compounds.

Molecules are shown by their SMILES.

Chain of TRKA (P04629 441-796): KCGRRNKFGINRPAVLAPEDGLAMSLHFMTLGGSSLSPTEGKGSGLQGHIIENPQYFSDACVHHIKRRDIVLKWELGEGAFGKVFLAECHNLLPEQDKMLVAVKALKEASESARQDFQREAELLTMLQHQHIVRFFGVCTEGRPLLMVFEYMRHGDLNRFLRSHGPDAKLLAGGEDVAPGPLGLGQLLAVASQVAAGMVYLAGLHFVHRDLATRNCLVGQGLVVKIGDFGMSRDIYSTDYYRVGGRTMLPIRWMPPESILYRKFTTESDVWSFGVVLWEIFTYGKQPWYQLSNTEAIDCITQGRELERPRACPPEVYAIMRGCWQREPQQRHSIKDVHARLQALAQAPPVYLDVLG

Turning to `Cc1n[nH]c(C(F)(F)F)c1C(=O)Nc1cncc(C(=O)c2cn(C(C)C)c3ncncc23)c1` [Example 387, 3-Methyl-5-trifluoromethyl-1H-pyrazole-4-carboxylic acid [5-(7-isopropyl-7H-pyrrolo[2,3-d]pyrimidine-5-carbonyl)-pyridin-3-yl]-amide], the IC50 (commonly the concentration that gives 50% inhibition) was determined as 6.88 µM.
The value for `Cc1ccnc(C(=O)Nc2cncc(C(=O)c3cn(C(C)C)c4ncncc34)c2)c1` [Example 388, 4-Methyl-pyridine-2-carboxylic acid[5-(7-isopropyl-7H-pyrrolo[2,3-d]pyrimidine-5-carbonyl)-pyridin-3-yl]-amide] was 0.165 µM; that for `CC(C)n1cc(C(=O)c2cncc(NC(=O)c3c[nH]nc3C3CCC3)c2)c2cncnc21` [Example 389, 3-Cyclobutyl-1H-pyrazole-4-carboxylic acid [5-(7-isopropyl-7H-pyrrolo[2,3-d]pyrimidine-5-carbonyl)-pyridin-3-yl]-amide] was 0.0843 µM.
Next, `CC(C)n1cc(C(=O)c2cncc(NC(=O)c3cnco3)c2)c2cncnc21` [Example 390, Oxazole-5-carboxylic acid [5-(7-isopropyl-7H-pyrrolo[2,3-d]pyrimidine-5-carbonyl)-pyridin-3-yl]-amide]: 9.8 µM.
`Cc1c[nH]c(C(=O)Nc2cncc(C(=O)c3cn(C(C)C)c4ncncc34)c2)n1` [Example 391, 4-Methyl-1H-imidazole-2-carboxylic acid [5-(7-isopropyl-7H-pyrrolo[2,3-d]pyrimidine-5-carbonyl)-pyridin-3-yl]-amide]: the 50% inhibitory concentration (IC50) was determined as 0.246 µM.
Next, `CC(C)n1cc(C(=O)c2cncc(NC(=O)c3cc4cc[nH]c4cn3)c2)c2cncnc21` [Example 392, 1H-Pyrrolo[2,3-c]pyridine-5-carboxylic acid [5-(7-isopropyl-7H-pyrrolo[2,3-d]pyrimidine-5-carbonyl)-pyridin-3-yl]-amide]: 0.135 µM.
In the case of `Cc1cnc(C(=O)Nc2cncc(C(=O)c3cn(C(C)C)c4ncncc34)c2)cn1` [Example 393, 5-Methyl-pyrazine-2-carboxylic acid[5-(7-isopropyl-7H-pyrrolo[2,3-d]pyrimidine-5-carbonyl)-pyridin-3-yl]-amide], the concentration for half-maximal inhibition (IC50) was found to be 1.36 µM.
With `Cc1nn(C)cc1C(=O)Nc1cncc(C(=O)c2cn(C(C)C)c3ncncc23)c1` [Example 394, 1,3-Dimethyl-1H-pyrazole-4-carboxylic acid [5-(7-isopropyl-7H-pyrrolo[2,3-d]pyrimidine-5-carbonyl)-pyridin-3-yl]-amide], the IC50 was determined as 7.12 µM.
The value for `CC(C)n1cc(C(=O)c2cncc(NC(=O)c3cnc4cn[nH]c4c3)c2)c2cncnc21` [Example 395, 1H-Pyrazolo[4,3-b]pyridine-6-carboxylic acid [5-(7-isopropyl-7H-pyrrolo[2,3-d]pyrimidine-5-carbonyl)-pyridin-3-yl]-amide] was 1.35 µM; that for `CCc1cc(C(=O)Nc2cncc(C(=O)c3cn(C(C)C)c4ncncc34)c2)no1` [Example 396, 5-Ethyl-isoxazole-3-carboxylic acid[5-(7-isopropyl-7H-pyrrolo[2,3-d]pyrimidine-5-carbonyl)-pyridin-3-yl]-amide] was 0.177 µM.
`CC(C)n1cc(C(=O)c2cncc(NC(=O)c3ccnn3C)c2)c2cncnc21` [Example 397, 2-Methyl-2H-pyrazole-3-carboxylic acid [5-(7-isopropyl-7H-pyrrolo[2,3-d]pyrimidine-5-carbonyl)-pyridin-3-yl]-amide]: the IC50 was determined as 9.8 µM.
Next, `CC(C)n1cc(C(=O)c2cncc(NC(=O)c3cnc4ccccc4c3)c2)c2cncnc21` [Example 398, Quinoline-3-carboxylic acid [5-(7-isopropyl-7H-pyrrolo[2,3-d]pyrimidine-5-carbonyl)-pyridin-3-yl]-amide]: 0.138 µM.
The value for `CC(C)n1cc(C(=O)c2cncc(NC(=O)c3cc4cc(F)cnc4[nH]3)c2)c2cncnc21` [Example 399, 5-Fluoro-1H-pyrrolo[2,3-b]pyridine-2-carboxylic acid [5-(7-isopropyl-7H-pyrrolo[2,3-d]pyrimidine-5-carbonyl)-pyridin-3-yl]-amide] was 0.153 µM; that for `Cc1cc(C(=O)Nc2cncc(C(=O)c3cn(C(C)C)c4ncncc34)c2)nn1C` [Example 400, 1,5-Dimethyl-1H-pyrazole-3-carboxylic acid [5-(7-isopropyl-7H-pyrrolo[2,3-d]pyrimidine-5-carbonyl)-pyridin-3-yl]-amide] was 0.593 µM; that for `CC(C)n1cc(C(=O)c2cncc(NC(=O)c3coc(C4CC4)n3)c2)c2cncnc21` [Example 401, 2-Cyclopropyl-oxazole-4-carboxylic acid [5-(7-isopropyl-7H-pyrrolo[2,3-d]pyrimidine-5-carbonyl)-pyridin-3-yl]-amide] was 0.132 µM.
Take `CC(C)n1cc(C(=O)c2cncc(NC(=O)c3scnc3C(F)(F)F)c2)c2cncnc21` [Example 402, 4-Trifluoromethyl-thiazole-5-carboxylic acid [5-(7-isopropyl-7H-pyrrolo[2,3-d]pyrimidine-5-carbonyl)-pyridin-3-yl]-amide]: the IC50 came out at 9.8 µM.
On to `CC(C)n1cc(C(=O)c2cncc(NC(=O)c3ncn4c3CCC4)c2)c2cncnc21` [Example 403, 6,7-Dihydro-5H-pyrrolo[1,2-c]imidazole-1-carboxylic acid [5-(7-isopropyl-7H-pyrrolo[2,3-d]pyrimidine-5-carbonyl)-pyridin-3-yl]-amide], for which the IC50 came out at 1.22 µM.
Consider `CC(C)n1cc(C(=O)c2cncc(NC(=O)c3cc4sccc4cn3)c2)c2cncnc21` [Example 404, Thieno[3,2-c]pyridine-6-carboxylic acid [5-(7-isopropyl-7H-pyrrolo[2,3-d]pyrimidine-5-carbonyl)-pyridin-3-yl]-amide], for which the IC50 came to 0.118 µM.
Next, `CC(C)n1cc(C(=O)c2cncc(NC(=O)c3cn(C)nc3C(F)(F)F)c2)c2cncnc21` [Example 405, 1-Methyl-3-trifluoromethyl-1H-pyrazole-4-carboxylic acid [5-(7-isopropyl-7H-pyrrolo[2,3-d]pyrimidine-5-carbonyl)-pyridin-3-yl]-amide]: 1.63 µM; `CC(C)n1cc(C(=O)c2cncc(NC(=O)c3ccn4cncc4c3)c2)c2cncnc21` [Example 406, Imidazo[1,5-a]pyridine-7-carboxylicacid [5-(7-isopropyl-7H-pyrrolo[2,3-d]pyrimidine-5-carbonyl)-pyridin-3-yl]-amide]: 2.64 µM; `CC(C)n1cc(C(=O)c2cncc(NC(=O)c3ccnc4[nH]ccc34)c2)c2cncnc21` [Example 407, 1H-Pyrrolo[2,3-b]pyridine-4-carboxylic acid [5-(7-isopropyl-7H-pyrrolo[2,3-d]pyrimidine-5-carbonyl)-pyridin-3-yl]-amide]: 2.6 µM.
The value for `CCc1cc(C(=O)Nc2cncc(C(=O)c3cn(C(C)C)c4ncncc34)c2)on1` [Example 408, 3-Ethyl-isoxazole-5-carboxylic acid[5-(7-isopropyl-7H-pyrrolo[2,3-d]pyrimidine-5-carbonyl)-pyridin-3-yl]-amide] was 0.654 µM; that for `COc1ccnc(C(=O)Nc2cncc(C(=O)c3cn(C(C)C)c4ncncc34)c2)c1` [Example 409, 4-Methoxy-pyridine-2-carboxylic acid [5-(7-isopropyl-7H-pyrrolo[2,3-d]pyrimidine-5-carbonyl)-pyridin-3-yl]-amide] was 0.0704 µM.
Turning to `CC(C)n1cc(C(=O)c2cncc(NC(=O)c3cncnc3)c2)c2cncnc21` [Example 410, Pyrimidine-5-carboxylic acid [5-(7-isopropyl-7H-pyrrolo[2,3-d]pyrimidine-5-carbonyl)-pyridin-3-yl]-amide], the IC50 is 9.8 µM.
Turning to `Cc1n[nH]cc1C(=O)Nc1cncc(C(=O)c2cn(C(C)C)c3ncncc23)c1` [Example 411, 3-Methyl-1H-pyrazole-4-carboxylic acid [5-(7-isopropyl-7H-pyrrolo[2,3-d]pyrimidine-5-carbonyl)-pyridin-3-yl]-amide], the IC50 is 9.8 µM.
Consider `Cc1cnc2[nH]cc(C(=O)Nc3cncc(C(=O)c4cn(C(C)C)c5ncncc45)c3)c2c1` [Example 412, 5-Methyl-1H-pyrrolo[2,3-b]pyridine-3-carboxylic acid [5-(7-isopropyl-7H-pyrrolo[2,3-d]pyrimidine-5-carbonyl)-pyridin-3-yl]-amide], for which the IC50 is 0.00518 µM.
Next, `Cc1cncnc1C(=O)Nc1cncc(C(=O)c2cn(C(C)C)c3ncncc23)c1` [Example 413, 5-Methyl-pyrimidine-4-carboxylic acid [5-(7-isopropyl-7H-pyrrolo[2,3-d]pyrimidine-5-carbonyl)-pyridin-3-yl]-amide]: 9.8 µM.
Next, `CC(C)n1cc(C(=O)c2cncc(NC(=O)c3cnc4ccsc4c3)c2)c2cncnc21` [Example 414, Thieno[3,2-b]pyridine-6-carboxylic acid [5-(7-isopropyl-7H-pyrrolo[2,3-d]pyrimidine-5-carbonyl)-pyridin-3-yl]-amide]: 0.158 µM; `CC(C)n1cc(C(=O)c2cncc(NC(=O)c3cnc4ccnn4c3)c2)c2cncnc21` [Example 415, Pyrazolo[1,5-a]pyrimidine-6-carboxylic acid [5-(7-isopropyl-7H-pyrrolo[2,3-d]pyrimidine-5-carbonyl)-pyridin-3-yl]-amide]: 2.59 µM.
In the case of `CC(C)n1cc(C(=O)c2cncc(NC(=O)c3noc4c3CCCC4)c2)c2cncnc21` [Example 416, 4,5,6,7-Tetrahydro-1,2-benzisoxazole-3-carboxylic acid [5-(7-isopropyl-7H-pyrrolo[2,3-d]pyrimidine-5-carbonyl)-pyridin-3-yl]-amide], the half-maximal inhibitory concentration (IC50) amounted to 0.052 µM.
For the compound `CC(C)n1cc(C(=O)c2cncc(NC(=O)c3ncc4ccccn34)c2)c2cncnc21` [Example 417, Imidazo[1,5-a]pyridine-3-carboxylicacid [5-(7-isopropyl-7H-pyrrolo[2,3-d]pyrimidine-5-carbonyl)-pyridin-3-yl]-amide], the half-maximal inhibitory concentration (IC50) worked out at 0.0712 µM.
Take `CC(C)n1cc(C(=O)c2cncc(NC(=O)c3ccc4cc[nH]c4n3)c2)c2cncnc21` [Example 418, 1H-Pyrrolo[2,3-b]pyridine-6-carboxylic acid [5-(7-isopropyl-7H-pyrrolo[2,3-d]pyrimidine-5-carbonyl)-pyridin-3-yl]-amide]: the IC50 was 0.0402 µM.
